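Method: 48-hour compound exposure of cells in 96-well plates, five concentrations, linear interpolation of endpoints. GI50 is the concentration that inhibits growth by half.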 Calls of active or inactive are those of the source. Cut-off read from the data, not from the text of the source: active = GI50 up to about 1.1 µM and inactive = higher.
Assays:
Test in all cases: DTP human tumour cell line panel, 48 h
UACC-62 = tested on: UACC-62
HCT-116 = tested on: HCT-116
Hs-578T = tested on: Hs-578T
MDA-MB-231 = tested on: MDA-MB-231
NCI-H23 = tested on: NCI-H23
LOX IMVI = tested on: LOX IMVI
HT-29 = tested on: HT-29
A549 = tested on: A549
MCF7 = tested on: MCF7
NCI-H460 = tested on: NCI-H460
SW-620 = tested on: SW-620
MOLT-4 = tested on: MOLT-4
A498 = tested on: A498
SN12C = tested on: SN12C
U-251 = tested on: U-251
RPMI-8226 = tested on: RPMI-8226
MDA-N = tested on: MDA-N
SK-MEL-2 = tested on: SK-MEL-2

Measured: GI50

N=c1oc2cc(O)ccc2cc1C(=O)Nc1cccc2ccccc12
inactive: UACC-62 3.23 µM | HCT-116 3.39 µM | Hs-578T 2.94 µM | MDA-MB-231 3.06 µM | NCI-H23 3.7 µM | LOX IMVI 4.86 µM | HT-29 7.6 µM | A549 5.37 µM | MCF7 3.93 µM | NCI-H460 4.02 µM | SW-620 3.4 µM | MOLT-4 2.7 µM | A498 5.25 µM | SN12C 5.33 µM | U-251 3.53 µM | RPMI-8226 4.45 µM

Clc1cc(Cl)ncn1
inactive: UACC-62 > 100 µM | HCT-116 > 100 µM | Hs-578T > 100 µM | MDA-MB-231 > 100 µM | NCI-H23 > 100 µM | LOX IMVI > 100 µM | HT-29 > 100 µM | A549 > 100 µM | MCF7 > 100 µM | NCI-H460 > 100 µM | SW-620 > 100 µM | MOLT-4 > 100 µM | SN12C > 100 µM | MDA-N > 100 µM | U-251 > 100 µM | RPMI-8226 40.9 µM

O=C(/C=C/c1ccc(C(F)(F)F)cc1)c1c([O-])on[n+]1-c1ccccc1
active: LOX IMVI 0.403 µM | HT-29 0.889 µM | MOLT-4 0.284 µM | RPMI-8226 0.261 µM
inactive: UACC-62 1.47 µM | HCT-116 1.75 µM | MDA-MB-231 4.53 µM | NCI-H23 3.13 µM | A549 4.03 µM | MCF7 1.15 µM | NCI-H460 2.29 µM | SW-620 1.37 µM | SK-MEL-2 2.81 µM | A498 7.05 µM | SN12C 2.23 µM | MDA-N 1.84 µM | U-251 1.83 µM

S=c1nc(N2CCCCC2)c2cn[nH]c2[nH]1
inactive: UACC-62 50.1 µM | HCT-116 56.6 µM | Hs-578T 57.4 µM | MDA-MB-231 > 100 µM | NCI-H23 40.4 µM | LOX IMVI 39.4 µM | HT-29 41.8 µM | A549 76.7 µM | MCF7 34.6 µM | NCI-H460 42.3 µM | SW-620 57 µM | SK-MEL-2 20.1 µM | A498 > 100 µM | SN12C 79.8 µM | U-251 60.5 µM | RPMI-8226 12.2 µM

O=C1NC(Nc2ccccc2Cl)=N/C1=C\c1c(Cl)cccc1Cl
inactive: UACC-62 32.1 µM | HCT-116 22.5 µM | Hs-578T 28.8 µM | NCI-H23 37.1 µM | LOX IMVI 29.4 µM | HT-29 31.6 µM | A549 30.4 µM | MCF7 28.7 µM | NCI-H460 24.9 µM | SW-620 37.5 µM | MOLT-4 27 µM | SK-MEL-2 28.8 µM | A498 34.5 µM | SN12C 28.2 µM | MDA-N 16.5 µM | U-251 8.43 µM | RPMI-8226 20.6 µM

CCOc1cc(NC(C)=O)ccc1C(=O)NNS(=O)(=O)c1ccc(Cl)cc1Cl
inactive: UACC-62 > 50 µM | HCT-116 > 50 µM | Hs-578T > 50 µM | NCI-H23 > 50 µM | LOX IMVI 45.5 µM | HT-29 > 50 µM | A549 > 50 µM | MCF7 26.4 µM | NCI-H460 > 50 µM | SW-620 > 50 µM | MOLT-4 8.75 µM | SK-MEL-2 > 50 µM | A498 > 50 µM | SN12C > 50 µM | MDA-N 10.6 µM | RPMI-8226 7.48 µM

O=[N+]([O-])c1ccc(/N=N/c2c(O)ccc3cc(S(=O)(=O)O)ccc23)cc1
inactive: UACC-62 > 100 µM | HCT-116 > 100 µM | Hs-578T > 100 µM | MDA-MB-231 > 100 µM | NCI-H23 > 100 µM | LOX IMVI > 100 µM | HT-29 > 100 µM | A549 > 100 µM | SW-620 > 100 µM | MOLT-4 > 100 µM | SK-MEL-2 > 100 µM | A498 > 100 µM | SN12C > 100 µM | MDA-N > 100 µM | U-251 > 100 µM | RPMI-8226 > 100 µM

O=C1CC(c2ccccc2)Oc2ccccc21 (centres undefined) [FLAVANONE]
inactive: UACC-62 51.3 µM | HCT-116 30.3 µM | Hs-578T 67.3 µM | MDA-MB-231 32.2 µM | NCI-H23 15.9 µM | LOX IMVI 26.5 µM | HT-29 28 µM | MCF7 37.8 µM | NCI-H460 32.1 µM | SW-620 > 10 µM | MOLT-4 13.7 µM | SK-MEL-2 30.1 µM | A498 30.3 µM | U-251 38.6 µM | RPMI-8226 17.1 µM
